pEC50: −log10 of the molar value.

This assay deals with T1, human M4 muscarinic acetylcholine receptor (Homo sapiens, UniProt P08173).
T1 construct: expressed in transfected cells; host or cells: CHO-K1
T1 sequence (P08173 1-479): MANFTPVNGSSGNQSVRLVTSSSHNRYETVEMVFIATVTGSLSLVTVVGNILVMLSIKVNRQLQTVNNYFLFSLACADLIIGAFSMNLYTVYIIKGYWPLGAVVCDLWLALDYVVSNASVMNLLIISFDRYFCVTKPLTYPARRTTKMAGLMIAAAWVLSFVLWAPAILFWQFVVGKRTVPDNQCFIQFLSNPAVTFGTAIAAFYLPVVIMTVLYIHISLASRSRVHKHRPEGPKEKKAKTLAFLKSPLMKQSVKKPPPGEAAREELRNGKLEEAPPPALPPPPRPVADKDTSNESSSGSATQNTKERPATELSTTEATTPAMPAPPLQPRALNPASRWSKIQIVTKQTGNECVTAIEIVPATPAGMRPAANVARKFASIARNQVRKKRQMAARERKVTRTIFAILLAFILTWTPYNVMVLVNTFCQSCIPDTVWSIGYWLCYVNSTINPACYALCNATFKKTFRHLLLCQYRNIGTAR
Description: human FLIPR-based M4 PAM assay (Ca2+ mobilization, CHO-K1 cells with human M4 receptor and Gαqi5). Format: cell-based. Particulars: acetylcholine at 20% of maximum response, read-out: M4 PAM IP. The gist of the method:
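CHO-K1 cells stably expressing human M4 and chimeric Gαqi5 were dye-loaded ~1 h at 37 °C and read for Ca2+ fluorescence. Compound followed by acetylcholine at an EC20 (sometimes an EC70 third addition); inflection point from a 4-parameter logistic fit.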
Background: A change in cytosolic calcium serves as a functional read-out for many receptors and channels.
In the case of `Cc1cc2c(nc1N1CCC(Oc3ccc4c(c3)OC(F)(F)O4)CC1)CNC2=O` [Example 208, 2-(4-((2,2-difluorobenzo[d][1,3]dioxol-5-yl)oxy)piperidin-1-yl)-3-methyl-6,7-dihydro-5H-pyrrolo[3,4-b]pyridin-5-one], the pEC50 is 6.48.

For the molecule `COc1ccc(OC2CCN(c3nc4c(cc3C)C(=O)N(C)C4(C)C)CC2)cn1` [Example 17, 2-(4-((6-methoxypyridin-3-yl)oxy)piperidin-1-yl)-3,6,7,7-tetramethyl-6,7-dihydro-5H-pyrrolo[3,4-b]pyridin-5-one], the pEC50 is 5.93.

For `Cc1cc2c(nc1N1CCC(Oc3cccc(C#N)c3)CC1)[C@@H](C)N(C)C2=O` [Example 28A, (R)-3-((1-(3,6,7-trimethyl-5-oxo-6,7-dihydro-5H-pyrrolo[3,4-b]pyridin-2-yl)piperidin-4-yl)oxy)benzonitrile], the pEC50 was 7.08.

As for `Cc1cc2c(nc1N1CCC(Oc3cn[nH]c3)CC1)CNC2=O` [Example 142, 2-(4-((1H-pyrazol-4-yl)oxy)piperidin-1-yl)-3-methyl-6,7-dihydro-5H-pyrrolo[3,4-b]pyridin-5-one], the pEC50 was 6.57.

Take `Cc1cc2c(nc1N1CCC(Oc3ccccc3)CC1)CN(CCO)C2=O` [Example 231, 6-(2-Hydroxyethyl)-3-methyl-2-(4-phenoxypiperidin-1-yl)-6,7-dihydro-5H-pyrrolo[3,4-b]pyridin-5-one]: the pEC50 is 7.29.

As for `Cc1cc2c(nc1N1CCC(Oc3ccc4c(c3)CCCN4)CC1)CNC2=O` [Example 22, 3-methyl-2-(4-((1,2,3,4-tetrahydroquinolin-6-yl)oxy)piperidin-1-yl)-6,7-dihydro-5H-pyrrolo[3,4-b]pyridin-5-one], the pEC50 is 7.49.

On to `Cc1c(N2CCC(Oc3ccc4c(c3)COC4)CC2)nc2c(c1C)C(=O)N(CC(=O)O)C2` [Example 266B, 2-(2-(4-((1,3-dihydro-2-benzofuran-5-yl)oxy)piperidin-1-yl)-3,4-dimethyl-5-oxo-5,7-dihydro-6H-pyrrolo[3,4-b]pyridin-6-yl)acetic acid], for which the pEC50 is 7.28.

`Cc1cc2c(nc1N1CCC(OCC3(C)CC3)CC1)CN(C)C2=O` [Example 338, 3,6-dimethyl-2-(4-((1-methylcyclopropyl)methoxy)piperidin-1-yl)-6,7-dihydro-5H-pyrrolo[3,4-b]pyridin-5-one]: the pEC50 is 7.40.

`O=C1NCc2nc(N3CCC(Oc4ccc5c(c4)COC5)CC3)c(Br)cc21` [Example 226, 3-bromo-2-(4-((1,3-dihydro-2-benzofuran-5-yl)oxy)piperidin-1-yl)-6,7-dihydro-5H-pyrrolo[3,4-b]pyridin-5-one]: the pEC50 is 6.87.

Turning to `COc1ccc(OC2CCN(c3nc4c(cc3C)C(=O)NC4)CC2)cn1` [Example 1, 2-(4-((6-methoxypyridin-3-yl)oxy)piperidin-1-yl)-3-methyl-6,7-dihydro-5H-pyrrolo[3,4-b]pyridin-5-one], the pEC50 is 7.57.

For the molecule `COCc1ccc(OC2CCN(c3nc4c(cc3C)C(=O)NC4)CC2)cc1` [Example 195, 2-(4-(4-(methoxymethyl)phen-oxy)piperidin-1-yl)-3-methyl-6,7-dihydro-5H-pyrrolo[3,4-b]pyridin-5-one], the pEC50 is 7.17.

As to `Cc1cc2c(nc1N1CCC(Oc3cnc4[nH]nc(C)c4c3)CC1)CNC2=O` [Example 197, 3-methyl-2-(4-((3-methyl-1H-pyrazolo[3,4-b]pyridin-5-yl)oxy)piperidin-1-yl)-6,7-dihydro-5H-pyrrolo[3,4-b]pyridin-5-one], the pEC50 was 5.22.

On to `Cc1cc2c(nc1N1CCC(Oc3ccon3)CC1)CNC2=O` [Example 86, 2-(4-(isoxazol-3-yloxy)piperidin-1-yl)-3-methyl-6,7-dihydro-5H-pyrrolo[3,4-b]pyridin-5-one], for which the pEC50 was 5.24.

For `CCc1cc2c(nc1N1CC[C@@H](Oc3ccc4c(cnn4C)c3)[C@@H](F)C1)CNC2=O` [Example 5A, 3-ethyl-2-((3S,4R)-3-fluoro-4-((1-methyl-1H-indazol-5-yl)oxy)piperidin-1-yl)-6,7-dihydro-5H-pyrrolo[3,4-b]pyridin-5-one], the pEC50 was 6.92.

`CCc1cc2c(nc1N1CCC(OCC3(C)CC3(F)F)CC1)CNC2=O` (stereo not drawn) [Example 187A, 2-(4-((2,2-difluoro-1-methylcyclopropyl)meth-oxy)piperidin-1-yl)-3-ethyl-6,7-dihydro-5H-pyrrolo[3,4-b]pyridin-5-one]: the pEC50 was 6.53.

`CCc1cc2c(nc1N1CC[C@@H](Oc3cccnc3)[C@@H](F)C1)CNC2=O` (single isomer, unassigned) [Example 216, 3-ethyl-2-((3R,4S)- or (3S,4R)-3-fluoro-4-(pyridin-3-yloxy)piperidin-1-yl)-6,7-dihydro-5H-pyrrolo[3,4-b]pyridin-5-one]: the pEC50 is 6.05.

For `Cc1cc2c(nc1N1CCC(Oc3ccc4c(c3)C(C)(C)CCO4)CC1)CNC2=O` [Example 125, 2-(4-((4,4-dimethylchroman-6-yl)oxy)piperidin-1-yl)-3-methyl-6,7-dihydro-5H-pyrrolo[3,4-b]pyridin-5-one], the pEC50 is 6.21.

For `Cc1cc2c(nc1N1[C@@H]3CC[C@H]1C[C@H](Oc1ccc4c(cnn4C)c1)C3)CNC2=O` [Example 98, 3-methyl-2-(exo-3-((1-methyl-1H-indazol-5-yl)oxy)-8-azabicyclo[3.2.1]octan-8-yl)-6,7-dihydro-5H-pyrrolo[3,4-b]pyridin-5-one], the pEC50 is 6.28.

Take `COc1ccc(OC2[C@@H]3C[C@H]2CN(c2nc4c(cc2C)C(=O)NC4)C3)cn1` (single isomer, unassigned) [Example 185B]: the pEC50 is 5.60.

On to `Cc1cc2c(nc1N1CCC(Oc3cnn(-c4ccccc4)c3)CC1)CNC2=O` [Example 170A, 3-methyl-2-(4-((1-phenyl-1H-pyrazol-4-yl)oxy)piperidin-1-yl)-6,7-dihydro-5H-pyrrolo[3,4-b]pyridin-5-one], for which the pEC50 was 6.89.

Consider `COc1ccc(OC2CCN(c3nc4c(cc3C)C(=O)N(CCN(C)C)C4)CC2)cn1` [Example 235, 6-(2-(dimethylamino)ethyl)-2-(4-((6-methoxypyridin-3-yl)oxy)piperidin-1-yl)-3-methyl-6,7-dihydro-5H-pyrrolo[3,4-b]pyridin-5-one], for which the pEC50 was 6.49.

`COc1ccc(O[C@@H]2CCN(c3nc4c(cc3C)C(=O)N(C)[C@H]4CO)C[C@H]2F)cn1` [Example 281A, (R)-2-((3R,4R)-3-fluoro-4-((6-methoxypyridin-3-yl)oxy)piperidin-1-yl)-7-(hydroxymethyl)-3,6-dimethyl-6,7-dihydro-5H-pyrrolo[3,4-b]pyridin-5-one]: the pEC50 is 5.09.

Regarding `Cc1cc2c(nc1N1CCC(Oc3ccc(N(C)C)nc3)CC1)CNC2=O` [Example 106, 2-(4-((6-(dimethylamino)pyridin-3-yl)oxy)piperidin-1-yl)-3-methyl-6,7-dihydro-5H-pyrrolo[3,4-b]pyridin-5-one], the pEC50 was 6.53.

Consider `Cc1cc2c(nc1N1CCC(Oc3ccccc3)CC1)[C@H](CO)N(C)C2=O` [Example 275, (R)-7-(hydroxymethyl)-3,6-dimethyl-2-(4-phenoxypiperidin-1-yl)-6,7-dihydro-5H-pyrrolo[3,4-b]pyridin-5-one], for which the pEC50 is 5.40.
